Paper PMC5394143 (Clinical Drug Investigation, 2017)
Like-named read-outs stand apart in the source and are kept apart here.

Columns and labels:
CYP3A4 [1] = conditions: cited from earlier work
clinical [2] = conditions: both, human, plasma, oral, 50 mg
[3] = for AUC(0-inf) / half-life / Cmax / AUC(0-t): both, human, plasma; for AUC(0-inf) / half-life / Cmax: oral; for AUC(0-t): po
CYP2D6 = CYP2D6 (Homo sapiens, UniProt P10635); conditions: single dose of 50 mg osilodrostat
CYP3A4/5 = conditions: single dose of 50 mg osilodrostat
[4] = cited from earlier work
clinical [5] = conditions: both, human, plasma, po, 50 mg
[6] = safety set, 20 subjects
CYP1A2 = conditions: single dose of 50 mg osilodrostat
[7] = test system: urinary free cortisol (UFC); conditions: after 22 weeks of treatment, 15/19 patients; cited from earlier work
[8] = test system: urinary free cortisol (UFC); conditions: 2–30 mg twice daily, 10 weeks, 11/12 patients with Cushing’s disease; cited from earlier work
CYP3A4 [9] = conditions: cited from earlier work; remark: listed apart in the source
[10] = C max, substrate alone, geometric mean (CV%)
[11] = substrate alone, geometric mean (CV%)

CYP2D6, sequence (P10635 whole entry): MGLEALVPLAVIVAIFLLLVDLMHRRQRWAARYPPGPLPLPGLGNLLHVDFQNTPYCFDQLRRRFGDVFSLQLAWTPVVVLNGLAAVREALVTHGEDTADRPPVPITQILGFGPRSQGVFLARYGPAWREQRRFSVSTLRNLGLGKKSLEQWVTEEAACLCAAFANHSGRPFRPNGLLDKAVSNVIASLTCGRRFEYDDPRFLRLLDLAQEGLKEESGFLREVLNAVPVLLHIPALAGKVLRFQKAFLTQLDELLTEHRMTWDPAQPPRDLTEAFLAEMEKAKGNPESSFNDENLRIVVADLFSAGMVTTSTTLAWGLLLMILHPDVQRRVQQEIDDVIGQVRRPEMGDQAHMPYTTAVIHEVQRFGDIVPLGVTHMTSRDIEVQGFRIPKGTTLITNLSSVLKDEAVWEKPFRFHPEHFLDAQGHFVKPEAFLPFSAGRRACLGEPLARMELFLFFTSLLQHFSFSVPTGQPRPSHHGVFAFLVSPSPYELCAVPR

CC(=O)N1CCN(c2ccc(OCC3COC(Cn4ccnc4)(c4ccc(Cl)cc4Cl)O3)cc2)CC1 (stereo not drawn) [Ketoconazole, ketoconazole]
FDA inhibitor classification, CYP3A4 (CYP3A4 [1]; based on midazolam AUC change): strong inhibitor (strong inhibitor, ≥5-fold increase in AUC)
increase in midazolam AUC after ketoconazole administration (CYP3A4 [1]): ≤ 16 fold

Cc1ncc2n1-c1ccc(Cl)cc1C(c1ccccc1F)=NC2 [Midazolam, midazolam]
AUC(0-t) (clinical [2]): 31.7 ng·h/mL
Cmax (clinical [2]): 12.8 ng/mL
half-life (clinical [2]): 4.81 h
AUC(0-inf) [3]: 22 ng·h/mL
half-life [3]: 4.44 h
Cmax [3, 10]: 8.78 ng/mL
CL/F [3, 11]: 91.0 (39.6) L/h

COc1ccc2[nH]c([S+]([O-])Cc3ncc(C)c(OC)c3C)nc2c1 (stereo not drawn) [Omeprazole, omeprazole]
AUC(0-inf) (clinical [2]): 885 ng·h/mL
AUC(0-t) (clinical [2]): 852 ng·h/mL
Cmax (clinical [2]): 420 ng/mL
AUC(0-inf) [3]: 618 ng·h/mL
half-life [3]: 0.77 h
AUC(0-t) [3]: 460 ng·h/mL
C max [3, 11]: 271 (69.7) ng/mL
CL/F [3, 11]: 32.3 (92.9) L/h

N#Cc1ccc([C@H]2CCc3cncn32)c(F)c1 [Osilodrostat]
FDA inhibitor classification, CYP2D6 (CYP2D6): weak inhibitor (weak inhibitor, ≥1.25- but <2-fold increase in AUC)
FDA inhibitor classification, CYP3A4/5 (CYP3A4/5): weak inhibitor (weak inhibitor, ≥1.25- but <2-fold increase in AUC)
half-life [4]: 3 to 5 h
AUC(0-inf) (clinical [5]): 3430 ng·h/mL
Cmax (clinical [5]): 392 ng/mL
Tmax (clinical [5]): ~1.53 h
half-life (clinical [5]): 4.73 h
fatigue (suspected drug related) [6]: 15%
flatulence and diarrhea (suspected drug related) [6]: 5%
grade 3 or 4 AEs or serious AEs [6]: No grade 3 or 4 AEs, or serious AEs
subjects with AEs suspected to be drug related [6]: 30%
FDA inhibitor classification, CYP1A2 (CYP1A2): moderate inhibitor (moderate inhibitor, ≥2- but <5-fold increase in AUC)
patients with normalized UFC [7]: 79%
patients with normalized UFC [8]: 92%

COc1ccc2c(c1)[C@]13CCCC[C@@H]1[C@H](C2)N(C)CC3 [Dextromethorphan, dextromethorphan]
AUC(0-inf) [3]: 22.8 ng·h/mL
half-life [3]: 7.63 h
Cmax [3, 10]: 1.24 ng/mL
CL/F [3, 11]: 1310 (193.8) L/h

Clc1ccc(C(c2ccccc2Cl)C(Cl)Cl)cc1 (stereo not drawn) [Mitotane, mitotane]
CYP3A4 induction (CYP3A4 [9]): strong inducer

Cn1c(=O)c2c(ncn2C)n(C)c1=O [Caffeine, caffeine]
AUC(0-inf) (clinical [2]): 41900 ng·h/mL
AUC(0-t) (clinical [2]): 41100 ng·h/mL
Cmax (clinical [2]): 2640 ng/mL
half-life (clinical [2]): 7.39 h
AUC(0-inf) [3]: 16200 ng·h/mL
Cmax [3]: 2500 ng/mL
half-life [3]: 5.39 h
AUC(0-t) [3]: 17200 ng·h/mL
CL/F [3, 11]: 6.18 (44.8) L/h
